Test results: patent publication US20250019385A1, “SPIROCYCLIC ANNULATED 2-AMINO-3-CYANO THIOPHENES AND DERIVATIVES FOR THE TREATMENT OF CANCER” (Boehringer Ingelheim International GmbH, priority 2023, published 2025)
≈ marks a conversion by molar mass, not a printed value. Like-named read-outs stand apart in the source and are kept apart here.

Assays:
[1] = Metabolic (microsomal) stability assay, human liver microsomes (HLM); assay type: in vitro ADME; conditions: 1 μM test compound, predicted clearance as percent of liver blood flow
Experimental: The metabolic degradation of the test compound is assayed at 37° C. with pooled liver microsomes (mouse (MLM), rat (RLM) or human (HLM)). The final incubation volume of 48 μL per time point contains TRIS buffer (pH 7.5; 0.1 M), magnesium chloride (6.5 mM), microsomal protein (0.5 mg/mL for mouse/rat, 1 mg/mL for human specimens) and the test compound at a final concentration of 1 μM. Following a short preincubation period at 37° C., the reactions are initiated by addition of 12 μL beta-nicotinamide adenine dinucleotide phosphate, reduced form (NADPH, 10 mM) and terminated by transferring an aliquot into solvent after different time points (0, 5, 15, 30, 60 min). Additionally, the NADPH-independent degradation is monitored in incubations without NADPH, terminated at the last time point by addition of acetonitrile. The quenched incubations are pelleted by centrifugation (4,000 rpm, 15 min). An aliquot of the supernatant is assayed by LC-MS/MS to quantify the concentration of parent compound in the individual samples.
In vitro intrinsic clearance (CLint,in vitro) is calculated from the time course of the disappearance of the test drug during the microsomal incubation. Each plot is fitted to the first-order elimination rate constant as C(t)=C0*exp(−ke*t), where C(t) and C0 are the concentration of unchanged test drug at incubation time t and that at preincubation and ke is the disappearance rate constant of the unchanged drug. Subsequently, CLint, in vitro (μL min^−1·amount protein) values are converted to predicted CLint,in vivo (mL min^−1·kg^−1) from incubation parameters according to the equation CLint, in vivo=CLint, in vitro×(incubation volume (mL)/amount protein (mg))×(amount protein (mg)/g liver tissue)×(liver weight/body wt.).
For better across species comparison the predicted clearance is expressed as percent of the liver blood flow [% QH] (mL min^−1·kg^−1) in the individual species. In general, high stability (corresponding to low % QH) of the compounds across species is desired.

[2] = Solubility measurement (DMSO solution precipitation method); assay type: physicochemical; conditions: aqueous buffer, kinetic from dmso stock
Experimental: A 10 mM DMSO stock solution of a test compound is used to determine its aq. solubility. The DMSO solution is diluted with an aq. medium (McIlvaine buffer with pH=4.5 or 6.8) to a final concentration of 250 μM. After 24 h of shaking at ambient temperature a potentially formed precipitate is removed by filtration. The concentration of the test compound in the filtrate is determined by LC-UV methods by calibrating the signal to the signal of a reference solution with complete dissolution of the test compound in acetonitrile/water (1:1) with known concentration.

[3] = target: KRAS (G12D)::SOS1 protein-protein interaction (Homo sapiens (Human), UniProt P01116, G12D); assay: KRAS::SOS1 AlphaScreen binding assay (KRAS G12D); conditions: GDP
Chain of KRAS (G12D)::SOS1 protein-protein interaction (P01116 other isoform, or with tags, fused parts or gaps G12D): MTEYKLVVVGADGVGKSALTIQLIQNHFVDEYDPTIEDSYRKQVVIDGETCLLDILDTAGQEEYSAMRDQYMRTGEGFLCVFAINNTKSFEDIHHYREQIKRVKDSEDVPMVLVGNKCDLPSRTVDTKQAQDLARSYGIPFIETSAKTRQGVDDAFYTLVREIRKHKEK
Excerpt: This assay can be used to examine the potency with which compounds according to the invention binding to (mutated) KRAS inhibit the protein-protein interaction between SOS1 and (mutated) KRAS e.g. KRAS G12C, KRAS G12D. […] Low IC50 values in this assay setting are indicative of strong inhibition of protein-protein interaction between SOS1 and KRAS:
These assays measure the inhibitory effect of compounds on KRAS mutant protein-protein interactions using the Alpha Screen technology by Perkin Elmer.
The following (mutant) enzyme forms of KRAS and interacting proteins are used in these assays at the given concentrations:
KRAS (G12D) 1-169, N-terminal 6His-tag, C-terminal avi-tag (Xtal BioStructures, Inc.); final assay concentration 10 nM and SOS1 564-1049, N-terminal 229 GST-tag, TEV cleavage site (Viva Biotech Ltd); final assay concentration 5 nM;
Test compounds dissolved in DMSO are dispensed onto assay plates (Proxiplate 384 PLUS, white, PerkinElmer; 6008289) using an Access Labcyte Workstation with the Labcyte Echo 55x. For the chosen highest assay concentration of 100 μM, 150 nL of compound solution are transferred from a 10 mM DMSO compound stock solution. A series of eleven fivefold dilutions per compound are transferred to the assay plate, compound dilutions are tested in duplicates. DMSO are added as backfill to a total volume of 150 nL.
The assays run on a fully automated robotic system in a darkened room below 100 Lux. To 150 nl of compound dilution 10 μl of a mix including KRAS mutant protein, SOS1 (final assay concentrations see above) and GDP nucleotide (Sigma G7127; final assay concentration 10 μM) in assay buffer (1×PBS, 0.1% BSA, 0.05% Tween 20) are added into columns 1-24.
After 30 minutes incubation time 5 μl of Alpha Screen bead mix in assay buffer are added into columns 1-23. Bead mix consists of AlphaLISA Glutathione Acceptor Beads (PerkinElmer, Cat No AL109) and AlphaScreen Streptavidin Donor Beads (PerkinElmer Cat No 6760002) in assay buffer at a final assay concentration of 10 μg/mL each.
Plates are kept at room temperature in a darkened incubator. After an additional 60 minutes incubation time the signal is measured in a PerkinElmer Envision HTS Multilabel Reader using the AlphaScreen specs from PerkinElmer.
Each plate contains up to 16 wells of a negative control depending on the dilution procedure (platewise or serial) (DMSO instead of test compound; with KRAS mutant::SOS1 GOP mix and bead mix; column 23) and 16 wells of a positive control (DMSO instead of test compound; with KRAS mutant::SOS1 GOP mix w/o bead mix; column 24).
As internal control known inhibitors of KRAS mutant::SOS1 interaction can be measured on each compound plate.
IC50 values are calculated and analyzed with Boehringer Ingelheim's MEGALAB C50 application using a 4 parametric logistic model.
Tables of example compounds disclosed herein contain IC50 values determined using the above assays (see Table 43).

[4] = system: Ba/F3 cells KRAS G12D; assay: Ba/F3 proliferation assay (KRAS G12D); assay type: cell-based; conditions: Mus musculus, BaF3, 72 h, AlamarBlue viability
Experimental: (§1) Ba/F3 cells are ordered from DSMZ (ACC300, Lot17) and grown in RPMI-1640 (ATCC 30-2001)+10% FCS+10 ng/mL IL-3 at 37° C. in 5% […] atmosphere. Plasmids containing KRASG12 mutants (i.e. […], G12C, G12V) are obtained from GeneScript. To generate KRASG12-dependent Ba/F3 models, Ba/F3 cells are transduced with retroviruses containing vectors that harbor KRASG12 isoforms. Platinum-E cells (Cell Biolabs) are used for retrovirus packaging. Retrovirus is added to Ba/F3 cells. To ensure infection, 4 μg/mL polybrene is added and cells are spinfected. Infection efficiency is confirmed by measuring GFP-positive cells using a cell analyzer. Cells with an infection efficiency of 10% to 20% are further cultivated and puromycin selection with 1 μg/mL is initiated. As a control, parental Ba/F3 cells are used to show selection status. Selection is considered successful when parental Ba/F3 cells cultures died. To evaluate the transforming potential of KRASG12 mutations, the growth medium is no longer supplemented with IL-3. Ba/F3 cells harboring the empty vector are used as a control. Approximately ten days before conducting the experiments, puromycin is left out.
(§2) For proliferation assays, Ba/F3 cells are seeded into 384-well plates at 1.5×1 (M cells/60 μL in growth media (RPMI-1640+10% FCS). Compounds (10 mM stock in DMSO) are added at logarithmic dose series using the ECHO acoustic liquid handler system (Beckman Coulter), normalizing for added DMSO and including DMSO controls. All compound treatments are performed in technical duplicates. For the TO time point measurement, untreated cells are analyzed at the time of compound addition. Treated cells are incubated for 72 h at 37° C. with 5% CO2 and cell viability is measured in the PerkinElmer Envision Multimode Reader using AlamarBlue™ (ThermoFisher) viability stain. Viability (stated as percent of control) is defined as relative fluorescence units RFU of each well divided by the RFU of cells in DMSO controls. IC50 values are determined from viability measurements by non-linear regression using a four-parameter model.

[5] = system: Ba/F3 cells KRAS G12C; assay: Ba/F3 proliferation assay (KRAS G12C); assay type: cell-based; conditions: Mus musculus, BaF3, 72 h, AlamarBlue viability
Experimental: as §1, §2

[6] = system: Ba/F3 cells KRAS G12V; assay: Ba/F3 proliferation assay (KRAS G12V); assay type: cell-based; conditions: Mus musculus, BaF3, 72 h, AlamarBlue viability
Experimental: as §1, §2

[7] = McIlvaine buffer pH 4.5, 24 h, read-out: solubility pH 4.5
[8] = McIlvaine buffer pH 6.8, 24 h, read-out: solubility pH 6.8

Q: What does the source list for `CO[C@@H]1C[C@@H]([C@H](C)Oc2nc(-c3onc4c3CCC[C@@]43CCCc4sc(N)c(C#N)c43)nc3c2n(C)c(=O)n3[C@H]2CO[C@@H](C)C2)N(C)C1` [I-49]?
A: HLM QH [1]: 35%; solubility at 24 h [2, 7]: > 145 µg/mL; solubility at 24 h [2, 8]: 56 µg/mL (≈ 83 µM)

Q: Which results are given for `CO[C@H]1CCN(C)[C@@H]1[C@H](C)Oc1nc(-c2onc3c2CCC[C@@]32CCCc3sc(N)c(C#N)c32)nc2c1n(C)c(=O)n2[C@H]1CO[C@@H](C)C1` [I-48]?
A: HLM QH [1]: 63%; IC50 [3]: 2 nM; solubility at 24 h [2, 7]: > 148 µg/mL; solubility at 24 h [2, 8]: 53 µg/mL (≈ 78.5 µM); IC50 [4]: 3 nM; IC50 [5]: 2 nM; IC50 [6]: 1 nM

Q: For `C[C@@H]1COC[C@H](n2c(=O)n(C)c3c(O[C@@H](C)[C@@H]4CC[C@H](C)N4C)nc(-c4onc5c4CCC[C@@]54CCCc5sc(N)c(C#N)c54)nc32)C1` [I-53], which “HLM QH” value [1] is on record?
A: Its value is 45%.

Q: And the IC50 [3]?
A: The IC50 was 1 nM.

Q: And the solubility at 24 h [2, 7]?
A: The solubility at 24 h was greater than 153 µg/mL.

Q: What about the solubility at 24 h [2, 8] of the same compound?
A: Its solubility at 24 h is 19 µg/mL (≈ 28.2 µM).

Q: What about the IC50 [4] of the same compound?
A: The IC50 was 19 nM.

Q: What about the IC50 [5] of the same compound?
A: The IC50 was 6 nM.

Q: And the IC50 [6]?
A: Its IC50 is 2 nM.
